# Patent US20230203098A1, “HUMAN TRANSFERRIN RECEPTOR BINDING PEPTIDE” (priority 2020, published 2023)
# Like-named read-outs stand apart in the source and are kept apart here. Where a SMILES comes first, the peptide text is derived from it. Bridges are numbered along the chain shown (N, C = ends). [ ]: non-standard residue; d: D form. NMePhe(3-Cl) = CN[C@@H](Cc1cccc(Cl)c1)C(=O)O; NMeW = CN[C@@H](Cc1c[nH]c2ccccc12)C(=O)O; NMeY = CN[C@@H](Cc1ccc(O)cc1)C(=O)O; PEG4 = NCCOCCOCCOCCOCCC(=O)O; Nva = CCC[C@H](N)C(=O)O
# Target: transferrin receptor (hTfR) (Homo sapiens, UniProt P02786)
# Sequence (P02786 whole entry): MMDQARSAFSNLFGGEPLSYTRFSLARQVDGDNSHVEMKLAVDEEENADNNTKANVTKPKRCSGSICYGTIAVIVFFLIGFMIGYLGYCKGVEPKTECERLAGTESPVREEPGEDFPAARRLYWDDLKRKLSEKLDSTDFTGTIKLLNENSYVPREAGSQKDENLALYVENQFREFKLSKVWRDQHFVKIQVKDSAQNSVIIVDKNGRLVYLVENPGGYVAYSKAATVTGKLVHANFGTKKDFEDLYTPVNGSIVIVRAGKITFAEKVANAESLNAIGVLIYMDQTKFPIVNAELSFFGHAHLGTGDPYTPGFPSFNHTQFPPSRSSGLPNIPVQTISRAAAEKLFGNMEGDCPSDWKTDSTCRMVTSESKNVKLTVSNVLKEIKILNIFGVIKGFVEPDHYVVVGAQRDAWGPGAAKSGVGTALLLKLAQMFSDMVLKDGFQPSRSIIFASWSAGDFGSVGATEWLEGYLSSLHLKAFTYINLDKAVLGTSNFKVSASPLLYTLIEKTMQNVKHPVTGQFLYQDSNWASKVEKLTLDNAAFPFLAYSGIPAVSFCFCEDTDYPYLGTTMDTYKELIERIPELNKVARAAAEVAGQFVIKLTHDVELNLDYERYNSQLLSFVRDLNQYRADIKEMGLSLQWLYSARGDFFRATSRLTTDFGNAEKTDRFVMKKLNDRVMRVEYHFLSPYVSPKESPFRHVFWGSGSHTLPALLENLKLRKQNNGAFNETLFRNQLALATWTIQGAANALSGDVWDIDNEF
# Assay: Intermolecular interaction evaluation test between transferrin receptor (hTfR) and peptide by surface plasmon resonance (SPR)
# Assay type: binding
# Experimental: For each of the various synthesized peptides, the intermolecular interaction of the peptide with the transferrin receptor (hTfR) was tested by surface plasmon resonance (SPR) according to the following method. The specific test method is as follows.
# An NTA sensor chip (Global Life Sciences Technologies Japan) was inserted in a Biacore T200 (Global Life Sciences Technologies Japan) and a prime operation was performed 3 times with a running buffer: 10 mM HEPES pH 8.0 (Nacalai Tesque), 150 mM NaCl (Nacalai Tesque), 0.05% Tween 20 (Nacalai Tesque), 0.1% BSA (Sigma-Aldrich), 1.0% DMSO (FUJIFILM Wako Pure Chemical) to create an Equilibration state at a flow rate of 30 µL/min. After reacting with 350 mM EDTA solution for 60 seconds at a flow rate of 10 µL/min then reacting with 0.5 mM NiCl2 solution (Kishida Chemical) for 60 seconds at a flow rate of 10 µL/min, the NTA sensor chip was washed with 3 mM EDTA solution (Nacalai Tesque) for 60 seconds at a flow rate of 10 µL/min. After mixing 50 µL each of 60 mM EDC solution (Global Life Sciences Technologies Japan) and 650 mM NHS solution (Global Life Sciences Technologies Japan), the mixture was reacted for 420 seconds at a flow rate of 10 µL/min. By diluting with the running buffer, 150 µL of 3.2 µM hTfR solution was prepared and used for reaction for 600 seconds at a flow rate of 10 µL/min, thereby immobilizing hTfR on the NTA sensor chip. After immobilization, capping was performed by reacting with 1.0 M ethanolamine aqueous solution (Global Life Sciences Technologies Japan) for 420 seconds at a flow rate of 10 µL/min. A peptide dissolution liquid prepared to 10 mM in the DMSO solution was diluted with the running buffer to a final concentration of 10 µM so as to become the peptide dissolution liquid, then peptide solutions of 100 nM, 50 nM, 25 nM, 10 nM and 5 nM were prepared. Kinetics of the peptide to hTfR was acquired by SPR measurement using the above-mentioned samples. Single-cycle kinetics was used as a kinetic evaluation model and curve fitting was performed using Biacore T200 Evaluation Software Version 3.0 (Global Life Sciences Technologies Japan). An obtained sensorgram was subjected to curve fitting using the least-squares method, and the binding of the peptide to hTfR was evaluated by obtaining KD values. […] A chemical structure of hTfR No. 894 is as follows.
# The variant peptides were synthesized according to Example 1 unless otherwise stated in Example 9 or 10. The linker-added peptides were synthesized according to Example 1, except that Fmoc-NH-SAL-PEG resin (Watanabe Chemical Industries) was used as a resin for the peptide synthesis when the linker was PEG. The peptide, to which a peptide, a fatty acid, PEG, or a conjugate thereof is added as a linker, was also synthesized according to Example 1, unless otherwise stated in Example 9 or 10.
# [1] = surface plasmon resonance, hTfR, read-out: KD value for hTfR by SPR (class symbol)
smiles,measurement,setting,value
CC[C@H](C)[C@@H]1NC(=O)[C@H](Cc2ccc(OC)cc2)NC(=O)[C@H](Cc2ccc(O)cc2)NC(=O)[C@H](CC(N)=O)NC(=O)[C@H](Cc2c[nH]c3ccccc23)N(C)C(=O)[C@H](C(C)C)NC(=O)[C@H](Cc2cccc(Cl)c2)N(C)C(=O)[C@H](C(C)C)NC(=O)[C@H](C)NC(=O)CSC[C@@H](C(=O)NCC(=O)NCC(=O)NCC(=O)NCC(=O)N[C@@H](CO)C(=O)N[C@@H](CO)C(=O)N[C@@H](CS)C(N)=O)NC(=O)[C@H](Cc2ccc(O)cc2)N(C)C(=O)[C@H](Cc2ccccc2)NC(=O)[C@@H](CCCNC(=N)N)NC(=O)[C@H](CCC(=O)O)NC(=O)[C@H]([C@@H](C)CC)NC1=O [compound 348],Kd,"surface plasmon resonance, peptide vs hTfR, read-out: KD value, hTfR binding by SPR (class symbol)",100 to 1000 nM
CC[C@H](C)[C@@H]1NC(=O)[C@H](Cc2ccc(OC)cc2)NC(=O)[C@H](Cc2ccc(O)cc2)NC(=O)[C@H](CC(N)=O)NC(=O)[C@H](Cc2c[nH]c3ccccc23)N(C)C(=O)[C@H](C(C)C)NC(=O)[C@H](Cc2cccc(Cl)c2)N(C)C(=O)[C@H](C(C)C)NC(=O)[C@H](C)NC(=O)CSC[C@@H](C(=O)NCCOCCOCCOCCOCCC(N)=O)NC(=O)[C@H](Cc2ccc(O)cc2)N(C)C(=O)[C@H](Cc2ccccc2)NC(=O)[C@@H](CCCNC(=N)N)NC(=O)C(C)(C)NC(=O)[C@H]([C@@H](C)CC)NC1=O [compound 354],Kd,[1],< 1 nM
CC[C@H](C)[C@@H]1NC(=O)[C@H](Cc2ccc(O)cc2)NC(=O)[C@H](Cc2ccc(O)cc2)NC(=O)[C@H](CC(N)=O)NC(=O)[C@H](Cc2c[nH]c3ccccc23)NC(=O)[C@H](C(C)C)NC(=O)[C@H](Cc2ccccc2)N(C)C(=O)[C@H](C(C)C)NC(=O)[C@H](C)NC(=O)CSC[C@@H](C(=O)NCCOCCOCCOCCOCCC(=O)NCCOCCOCCOCCOCCC(=O)NCCOCCOCCOCCOCCC(=O)N[C@@H](CCCCNC(=O)C2CCC(CN3C(=O)C=CC3=O)CC2)C(N)=O)NC(=O)[C@H](Cc2ccc(O)cc2)N(C)C(=O)[C@H](Cc2ccc(O)cc2)NC(=O)[C@H](CCCNC(=N)N)NC(=O)[C@H](CCCNC(=N)N)NC(=O)[C@H]([C@@H](C)CC)NC1=O (some centres unmarked) [compound 182],Kd,"hTfR binding by SPR, hTfR No. 894 variant peptides, linker-added peptides and payload conjugates (Table 2), read-out: KD value obtained from the SPR measurement",1 to 100 nM
CC[C@H](C)[C@@H]1NC(=O)[C@H](Cc2ccc(O)cc2)NC(=O)[C@H](Cc2ccc(O)cc2)NC(=O)[C@H](CC(N)=O)NC(=O)[C@H](Cc2c[nH]c3ccccc23)NC(=O)[C@H](C(C)C)NC(=O)[C@H](Cc2ccccc2)N(C)C(=O)[C@H](C(C)C)NC(=O)[C@H](C)NC(=O)CSC[C@@H](C(=O)NCC(=O)NCC(=O)NCC(=O)NCC(=O)N[C@@H](CO)C(=O)N[C@@H](CO)C(=O)N[C@@H](CSCC(=O)NC)C(N)=O)NC(=O)[C@H](Cc2ccc(O)cc2)N(C)C(=O)[C@H](Cc2ccc(O)cc2)NC(=O)[C@H](CCCNC(=N)N)NC(=O)[C@H](CCCNC(=N)N)NC(=O)[C@H]([C@@H](C)CC)NC1=O [compound 443],Kd,"surface plasmon resonance, peptide vs hTfR, read-out: KD value for hTfR by SPR (class symbol)",1 to 100 nM
CCC[C@@H]1NC(=O)[C@H]([C@@H](C)CC)NC(=O)[C@H]([C@@H](C)CC)NC(=O)[C@H](Cc2ccc(OC)cc2)NC(=O)[C@H](Cc2ccc(O)cc2)NC(=O)[C@H](CC(N)=O)NC(=O)[C@H](Cc2c[nH]c3ccccc23)N(C)C(=O)[C@H](C(C)C)NC(=O)[C@H](Cc2cccc(Cl)c2)N(C)C(=O)[C@H](C(C)C)NC(=O)[C@H](C)NC(=O)CSC[C@@H](C(=O)NCCOCCOCCOCCOCCC(N)=O)NC(=O)[C@H](Cc2ccc(O)cc2)N(C)C(=O)[C@H](Cc2ccccc2)NC(=O)[C@@H](CCCNC(=N)N)NC1=O [compound 360] ({CH2CO}-AV[NMePhe(3-Cl)]V[NMeW]NYY(Me)II[Nva][dR]F[NMeY]C[PEG4]-NH2; thioether N-15),Kd,[1],1 to 100 nM
